Measurements published in patent US20250049885A1, “HYALURONIC ACID BINDING PEPTIDE AS A THERAPEUTIC TO CONTROL FIBROBLAST ACTIVATION AND FIBROTIC CAPSULE FORMATION” (SOUTH DAKOTA BOARD OF REGENTS, priority 2023, published 2025).
Ends that are not written are not given here.

Legend:
[1] = tested on: primary dermal fibroblasts; assay: Cell morphology and alignment on functionalized surfaces (brightfield); type: cell-based, human; settings: vs cells on the other surface groups
Experimental: FIGS. 3A-B depicts primary dermal fibroblasts seeded at 50.000 cells/154 mm^2 and incubated for 10 days on HABP and Scrambled HABP functionalized surfaces. APTMS surfaces were treated with 2% APTMS only and Untreated surfaces had no treatment other than PBS rinse. […] Decellularization occurred on Day 11. (Representative of average and standard deviation; N=3; scale bar represents 100 μm). […] (Representative of average and standard deviation; N=6).
APTMS functionalized and untreated experimental groups were established.
Untreated and HABP functionalized surfaces did have some fibroblasts with higher levels of alignment, but the majority of fibroblast cells in those groups maintained a similar distribution of alignment to the APTMS cultures.

[2] = tested on: Col1 fibers deposited by dermal fibroblasts; assay: Type I Collagen immunostaining and fiber analysis (CT-Fire); type: cell-based, human; settings: p-value<0.01
Source text: FIGS. 5A-G show Type I Collagen immunostaining results. FIG. 5A is a color cell culture stain: Fluorescent images of Col1 at 20× magnification. The scale bar represents 100 μm. FIG. 5B is a color image showing CT-Fire overlays of Col1 fibers from the above images, where different fiber characteristics are shown via different coloration. FIG. 5C is a graphical representation of the distribution of the number of Col1 fibers in each treatment group. FIG. 5D is a graphical representation of the distribution of Col1 fiber lengths in each treatment group. There is a notable difference between the APTMS group and the Untreated and HABP groups. FIG. 5E is a graphical representation of the measurement of fiber straightness. […] The closer the value is to one, the straighter individual fibers within the treatment groups are. FIG. 5F is a graphical representation of the Col1 fiber width comparison between treatment groups. […]
Immunostaining was done using α-SMA (D4K9N, Cell Signal) and Type I collagen primary antibodies. […] After this point, all further staining was conducted in the dark to preserve fluorescence. […]
Immunostaining for Type I Collagen (Col1) was done to determine the impact of the HABP surface treatment on ECM formation. […] Col1 fibers were analyzed and the analysis found significant differences in fiber angle, straightness, and width.

[3] = Live/Dead fluorescent staining of fibroblasts cultured on functionalized surfaces; type: cell-based, human; settings: human; fibroblasts cultured on functionalized surface; read-out: Cell viability (Live/Dead)
Experimental: (§1) FIGS. 2A-C depict assessment of the cytocompatibility of the peptide treated surfaces using Live/Dead and PrestoBlue assays. Presto Blue assay is a measure of cellular metabolic activity. FIG. 2A is a color image of a cell culture: Calcein-AM (green) and Propidium Iodide (red) were used to stain for live and dead cells respectively.
(§2) Surface functionalization was done with 2% APTMS and 1 mM HABP. 2% APTMS (in 2-propanol) was treated on the surface for 6 hours in a wet chamber at room temperature. Following the end of the culture period, three washes with DI H2O were used to remove the residual APTMS. A 1 mM HABP in DI H2O solution was added to the surface and left overnight at 4° C. in the wet chamber. After the peptide treatment is completed, the surfaces were rinsed 5 times with PBS for 5 minutes each. These functionalized surfaces were used for HA binding verification and cell seeding experiments. Two other experimental groups were established: one with only the APTMS treatment, and one with no surface treatment (Table 2).
(§3) Human primary dermal fibroblasts (HDFs) were cultured in a culture media consisting of DMEM, 10% fetal bovine serum (FBS), and 1% penicillin-streptomycin (10,000 IU/mL). The cells were rinsed with warm 1×PBS to remove any traces of FBS from the surface, and a 0.25% trypsin/EDTA treatment was used to detach the cells from the culture flask at 37° C. for 5 minutes. 4 mL of fresh media was added to the cells to inhibit the trypsin, and the suspended cells were withdrawn from the flask, counted using a hemocytometer, and added to a 15 ml centrifuge tube. The cells were centrifuged for 5 minutes at 1500 rpms, and the media was withdrawn and replaced with a calculated amount of fresh media in which the cells were resuspended. The cells were added to the functionalized MatTek surfaces, and after 6 hours, 2 mL of media containing 100 μg/mL ascorbic acid was added. The cells were cultured for 48-96 hours before further experimentation was conducted. […]

[4] = tested on: normal human adult primary dermal fibroblasts; assay: as above; type: cell-based
Experimental: as §1, §2, §3

Compound | Cell morphology [1] | Col1 fiber width narrower than untreated cultures [2] [%] | viability [3] [%] | Cell viability vs control groups (Live/Dead) ([4]; HABP vs APTMS treated and untreated surfaces) | Cell viability (Live/Dead) ([4]; fibroblasts cultured on functionalized surface) [%]
CO[Si](CCCN)(OC)OC [APTMS, 3-aminopropyltrimethoxysilane] | slightly stressed morphology | 5 | – | – | –
GAHWQFNALTVR [HABP, GAHWQFNALTVR] | – | – | 98.9 | no significant difference | 98.9
